# Literature values in US12649952B2, “NTRK fusion molecules and uses thereof” (Foundation Medicine, Inc., priority 2019, dated 2026).
# Where two headings read alike, the source gives them in different places.
# Key:
# NTRK gene fusions = details: after further follow-up, expanded patient population (n=159)
# [1] = tested on: NTRK1 fusion-positive tumors; details: human, in vivo
# [2] = tested on: NTRK fusion-positive AML cell lines
# [3] = tested on: solid tumors with NTRK fusions; details: monotherapy; adult and pediatric patients, with and without CNS metastases
# [4] = tested on: preclinical tumor models including a xenograft model of lung cancer; details: in vivo
# TrkA = TrkA (Homo sapiens, UniProt P04629); details: for inhibition of Ntrk1 / NTRK1: result in words
# Ntrk1/Hsp90 [5] = details: results in degradation and depletion of Ntrk1
# myeloid leukemia cells [6] = tested on: myeloid leukemia cells
# myeloid leukemia cells [7] = tested on: myeloid leukemia cells; remark: listed apart in the source
# Ntrk1/Hsp90 [8] = tested on: Ntrk1/Hsp90
# NGF dimer = NGF dimer (Homo sapiens, UniProt P01138); details: read-out: KD for binding the NGF dimer
# neuroblastoma xenograft = details: in vivo
# neuroblastoma = details: human, in vivo
# [9] = tested on: NTRK fusion-positive cancers
# [10] = tested on: lung adenocarcinoma cell line
# preclinical models = details: variety of preclinical models
# tumor xenograft models = details: variety of preclinical tumor xenograft models
# solid tumors [11] = details: Phase 1, solid tumors
# [12] = tested on: lung adenocarcinoma with KRAS mutation; details: mouse, in vivo
# solid tumors [13] = details: Phase 1, 56 solid tumor patients
# Chain of TrkA (P04629 33-796): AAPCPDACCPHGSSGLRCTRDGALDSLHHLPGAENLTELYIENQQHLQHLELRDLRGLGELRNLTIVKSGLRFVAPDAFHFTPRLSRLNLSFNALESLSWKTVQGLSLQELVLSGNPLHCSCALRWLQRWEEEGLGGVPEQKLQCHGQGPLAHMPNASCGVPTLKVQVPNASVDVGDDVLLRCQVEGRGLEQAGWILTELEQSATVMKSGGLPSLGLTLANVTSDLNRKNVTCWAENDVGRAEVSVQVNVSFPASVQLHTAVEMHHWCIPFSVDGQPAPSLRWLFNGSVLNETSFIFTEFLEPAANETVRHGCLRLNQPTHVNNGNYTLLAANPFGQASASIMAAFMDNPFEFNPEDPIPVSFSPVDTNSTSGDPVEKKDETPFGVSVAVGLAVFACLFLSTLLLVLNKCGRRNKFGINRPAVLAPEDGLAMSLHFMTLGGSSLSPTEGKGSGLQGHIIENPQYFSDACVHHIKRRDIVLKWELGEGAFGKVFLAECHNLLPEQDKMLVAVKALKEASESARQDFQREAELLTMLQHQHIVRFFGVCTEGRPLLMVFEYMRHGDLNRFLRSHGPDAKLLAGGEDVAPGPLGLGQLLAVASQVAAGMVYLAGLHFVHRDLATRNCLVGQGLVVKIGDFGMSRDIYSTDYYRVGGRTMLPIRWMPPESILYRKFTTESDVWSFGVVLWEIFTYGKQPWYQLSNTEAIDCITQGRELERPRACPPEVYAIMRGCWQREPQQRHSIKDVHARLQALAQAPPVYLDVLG
# Chain of NGF dimer (P01138 122-241): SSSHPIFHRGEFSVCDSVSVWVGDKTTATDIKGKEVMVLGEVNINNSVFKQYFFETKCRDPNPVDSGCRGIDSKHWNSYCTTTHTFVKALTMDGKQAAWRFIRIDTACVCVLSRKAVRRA
compound,measurement,setting,value
"O=C(Nc1cnn2ccc(N3CCC[C@@H]3c3cc(F)ccc3F)nc12)N1CC[C@H](O)C1 [Larotrectinib, larotrectinib]",median duration of response,NTRK gene fusions,35.2 (22.7—not evaluable [NE]) months
same,overall response rate,NTRK gene fusions,79%
same,overall response rate (ORR),"NTRK fusion cancers; NTRK fusion cancers, current clinical trials",75%
same,"responses ongoing, share of patients",NTRK fusion cancers; at 12 months of treatment,75-81%
same,"CR observed, share of patients","NTRK fusion cancers; combined Phase 1, Phase 1/2 and Phase 2 data",17%
same,ORR,"NTRK fusion cancers; combined Phase 1, Phase 1/2 and Phase 2 data, adult and pediatric patients, various solid tumors harboring NTRK fusions (88/109)",81%
same,intracranial efficacy,NTRK fusion cancers; individuals with NTRK fusion-positive gliomas or brain metastases,demonstrated
C[C@@H](Oc1cc(-c2cnn(C3CCNCC3)c2)cnc1N)c1c(Cl)ccc(F)c1Cl [crizotinib],clinical responses,[1],Durable clinical responses
"CN1CCN(c2ccc(C(=O)Nc3n[nH]c4ccc(Cc5cc(F)cc(F)c5)cc34)c(NC3CCOCC3)c2)CC1 [entrectinib, N-[5-(3,5-Difluorobenzyl)-1H-indazol-3-yl]-4-(4-methyl-1-piperazinyl)-2-(tetrahydro-2H-pyran-4-ylamino)benzamide]",sensitivity of cell lines,[2],preclinical sensitivity
same,clinical benefit,[3],Clinical benefit
Nc1ncc(-c2cnn(C3CCNCC3)c2)cc1-c1nc2ccccc2o1 [KRC-108],antiproliferative activity,[4],antiproliferative activity
same,inhibition of Ntrk1 / NTRK1,TrkA,inhibit NTRK1
CO[C@H]1/C=C\C=C(/C)C(=O)NC2=CC(=O)C(NCCN(C)C)=C(C[C@@H](C)C[C@H](OC)[C@H](O)[C@@H](C)/C=C(\C)[C@@H]1OC(N)=O)C2=O [17-DMAG],Ntrk1/Hsp90 binding,Ntrk1/Hsp90 [5],disrupted Ntrk1/Hsp90 binding
same,growth of myeloid leukemia cells,myeloid leukemia cells [6],reduced the growth of myeloid leukemia cells
same,growth of myeloid leukemia cells,myeloid leukemia cells [7],reduced the growth of myeloid leukemia cells
same,Ntrk1/Hsp90 binding,Ntrk1/Hsp90 [8],disrupted Ntrk1/Hsp90 binding
same,Ntrk1 level,Ntrk1/Hsp90 [8]; consequence of disrupted Ntrk1/Hsp90 binding,degradation and depletion of Ntrk1
Cc1cc2nc3c(=O)[nH]c(=O)nc-3n(C)c2cc1C=O [Ro 08-2750],Kd,NGF dimer,~1000 nM
"C[C@]12O[C@H](C[C@]1(O)CO)n1c3ccccc3c3c4c(c5c6ccccc6n2c5c31)CNC4=O [lestaurtinib, (5S,6S,8R)-6-hydroxy-6-(hydroxymethyl)-5-methyl-7,8,14,15-tetrahydro-5H-16-oxa-4b,8a,14-triaza-5,8-methanodibenzo[b,h]cycloocta[jkl]cyclopenta[e]-as-indacen-13(6H)-one]",tumor growth,neuroblastoma xenograft,inhibit tumor growth
same,efficacy in clinical trials,neuroblastoma,effective
C[C@@H]1CCc2ncc(F)cc2[C@H]2CCCN2c2ccn3ncc(c3n2)C(=O)N1 [LOXO-195],confirmed complete or partial response,"[9]; 10 of 29 evaluable patients, RECIST 1.1, NTRK fusions resistant to other TRK-targeted therapeutics",34%
same,safety and tolerability,[9]; solid tumor cancer patients with NTRK fusions resistant to other TRK-targeted therapeutics,"safe, tolerable"
"COC(=O)[C@@]1(O)C[C@H]2O[C@]1(C)n1c3ccccc3c3c4c(c5c6ccccc6n2c5c31)C(=O)NC4 [K252a, (9S-(9a, 108,12a))-2,3,9,10,11,12-hexahydro-10-hydroxy-10-(methoxycarbonyl)-9-methyl-9,12-epoxy-1H-diindolo [1,2,3-fg: 3′,2′,1′-kl] pyrrolo [3,4-i][1,6] benzodiazocin-1-one]",activation of the anti-apoptotic protein Akt,[10],block activation
same,cell death,[10],promote cell death
same,tumor cell growth,[10],reduce tumor cell growth
CO[C@]1(COC(=O)CCNC(=O)[C@@H](N)CCCCN)C[C@H]2O[C@]1(C)n1c3ccccc3c3c4c(c5c6ccccc6n2c5c31)C(=O)NC4 [CEP-2563],anti-tumor activity,preclinical models,anti-tumor activity
"CC(C)Oc1cc(Nc2nc(N[C@@H](C)c3ccc(F)cn3)ncc2Cl)n[nH]1 [AZ-23, 5-chloro-N-[(1S)-1-(5-fluoropyridin-2-yl)ethyl]-N′-(5-propan-2-yloxy-1H-pyrazol-3-yl)pyrimidine-2,4-diamine]",tumor growth,neuroblastoma xenograft,inhibit tumor growth
CNC(=O)c1nn(C)c2c1C(C)(C)Cc1cnc(Nc3ccc(N4CCN(C)CC4)cc3)nc1-2 [PHA-848125],anti-tumor effect,tumor xenograft models,anti-tumor effect
same,partial response,solid tumors [11],2/14
same,stable disease,solid tumors [11],9/28
same,tumor growth,[12],inhibit tumor growth
CO[C@@H](C(=O)N1Cc2n[nH]c(NC(=O)c3ccc(N4CCN(C)CC4)cc3)c2C1)c1ccccc1 [danusertib],objective response,solid tumors [13],objective response in one non-small cell lung cancer patient
same,tumor regression,solid tumors [13],tumor regression in an ovarian cancer patient
same,inhibition of Ntrk1 / NTRK1,TrkA,inhibit Ntrk1
NC(=O)Nc1snc(S[C@@H]2CCCCc3ccccc32)c1C(N)=O [isothiazole 5n],IC50,TrkA,< 1 nM
